The target of series [1] is T1, recMmTDH (Mus musculus, UniProt Q8K3F7).
T1 construct: gene Tdh; predicted mitochondrial transfer peptide removed; E. coli BL21; synthetic gene, 991 bp insert
Put plainly: NADH formation, absorbance at […] nm, relative to DMSO control. The series is classed as biochemical. Conditions: 20 μM compound; 2 mM L-Thr, 3 mM NAD+; pH 8.4; 37 °C.

Series [2] has as its target T2, recEmTDH (Echinococcus multilocularis, UniProt A0A068Y017).
T2 construct: gene EmuJ_000511900; E. coli BL21; 979 bp insert from metacestode vesicle cDNA
T2 sequence (A0A068Y017 31-362): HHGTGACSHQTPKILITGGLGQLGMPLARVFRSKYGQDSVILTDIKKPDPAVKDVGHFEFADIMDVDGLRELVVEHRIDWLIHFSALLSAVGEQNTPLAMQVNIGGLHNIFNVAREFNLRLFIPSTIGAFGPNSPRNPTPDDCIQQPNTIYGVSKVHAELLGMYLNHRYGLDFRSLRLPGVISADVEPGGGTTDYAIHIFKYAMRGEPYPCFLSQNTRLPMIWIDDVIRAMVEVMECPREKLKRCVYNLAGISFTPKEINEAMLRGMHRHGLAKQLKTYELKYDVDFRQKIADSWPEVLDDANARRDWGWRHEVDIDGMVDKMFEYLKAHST
The series is described as above. Format: biochemical. Conditions: read-out: residual activity at 20 μM.

The target of series [3] is T1, recMmTDH. The series is described as follows: NADH formation, absorbance at […] nm. Format: biochemical. The settings on record: 0-16 mM L-Thr, 10 mM NAD+; pH 8.4; 37 °C.
Substrate in series [4]: NC(=O)c1ccc[n+]([C@@H]2O[C@H](COP(=O)(O)OP(=O)(O)OC[C@H]3O[C@@H](n4cnc5c(N)ncnc54)[C@H](O)[C@@H]3O)[C@@H](O)[C@H]2O)c1
Put plainly: purified protein. Format: biochemical, Echinococcus multilocularis. The settings on record: 16 mM L-Thr, 80 mM Tris-HCl pH 8.4, 37 °C, varied: cofactor.

Substrate in series [5]: C[C@@H](O)[C@H](N)C(=O)O
Put plainly: purified protein. Format: biochemical, Echinococcus multilocularis. The settings on record: 2 mM NAD+, 80 mM Tris-HCl pH 8.4, 37 °C.

T1 sequence (Q8K3F7 46-373): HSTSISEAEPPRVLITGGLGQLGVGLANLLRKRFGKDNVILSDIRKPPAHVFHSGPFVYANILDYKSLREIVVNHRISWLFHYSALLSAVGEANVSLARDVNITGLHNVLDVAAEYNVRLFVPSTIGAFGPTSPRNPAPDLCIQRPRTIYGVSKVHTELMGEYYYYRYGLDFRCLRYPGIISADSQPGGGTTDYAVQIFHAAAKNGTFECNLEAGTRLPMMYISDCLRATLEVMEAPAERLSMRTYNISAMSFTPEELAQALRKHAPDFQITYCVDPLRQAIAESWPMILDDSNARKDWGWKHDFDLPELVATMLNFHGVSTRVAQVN

Turning to `O=C(NCc1ccccc1)c1ccc2c(=O)n(-c3cccc(C(F)(F)F)c3)c(=S)[nH]c2c1` [QC1], the “residual activity at 20 μM” value in series [1] is “All tested compounds, except QC4, inhibited recMmTDH activity”.

Turning to `O=C(O)c1ccc2c(=O)n(-c3cccc(C(F)(F)F)c3)c(=S)[nH]c2c1` [QC7], the “residual activity at 20 μM” value in series [1] is on record as “All tested compounds, except QC4, inhibited recMmTDH activity”.

For the molecule `O=c1c(O)c(-c2ccc(O)c(O)c2)oc2cc(O)cc(O)c12` [quercetin], the remaining activity at 20 µM in series [2] is 85.5 ± 2.8%. Further, the “residual activity at 20 μM” value in series [1] is “All tested compounds, except QC4, inhibited recMmTDH activity”.

With `O=c1c(O)c(-c2cc(O)c(O)c(O)c2)oc2cc(O)cc(O)c12` [myricetin], in series [2], the remaining activity at 20 µM amounted to 74.8 ± 1.7%. Besides, the “residual activity at 20 μM” value in series [1] is on record as “All tested compounds, except QC4, inhibited recMmTDH activity”.

`COc1ccc(NC(=O)c2ccc3c(=O)n(-c4cc(C(F)(F)F)ccc4Cl)c(=S)[nH]c3c2)cc1OC` [QC2]: the remaining activity at 20 µM in series [2] was 81.3 ± 1.8%. The “residual activity at 20 μM” value in series [1] is “All tested compounds, except QC4, inhibited recMmTDH activity”.

As to `COc1ccccc1CNC(=O)c1ccc2c(=O)n(-c3cccc(C(F)(F)F)c3)c(=S)[nH]c2c1` [QC3], the “residual activity at 20 μM” value in series [1] is given as “All tested compounds, except QC4, inhibited recMmTDH activity”.

`C[n+]1cc2c3c(ccc2c2ccc4cc5c(cc4c21)OCO5)OCO3` [sanguinarine]: the remaining activity at 20 µM in series [2] is 64 ± 4%. In series [1], the “residual activity at 20 μM” value was “All tested compounds, except QC4, inhibited recMmTDH activity”.

With `O=C(NCCCN1CCCC1=O)c1ccc2c(=O)n(-c3cccc(C(F)(F)F)c3)c(=S)[nH]c2c1` [QC5], the “residual activity at 20 μM” value in series [1] was “All tested compounds, except QC4, inhibited recMmTDH activity”.

Turning to `CCN(CC)C(=S)SSC(=S)N(CC)CC` [disulfiram], in series [2], the remaining activity at 20 µM was determined as 41.2 ± 0.8%. Also, the “residual activity at 20 μM” value in series [1] was “All tested compounds, except QC4, inhibited recMmTDH activity”.

In the case of `CN(Cc1ccccc1)C(=O)c1ccc2c(=O)n(-c3cccc(C(F)(F)F)c3)c(=S)[nH]c2c1` [QC6], in series [1], the “residual activity at 20 μM” value is “All tested compounds, except QC4, inhibited recMmTDH activity”.

As to `C[C@@H](O)[C@H](N)C(=O)O` [L-Thr], in series [3], the “NADH formation, absorbance at 340 nm” value is “we recombinantly expressed MmTDH (S5 File) and this protein was also enzymatically active”.

B1: recEmTDH (Echinococcus multilocularis) (protein)
chain: T2 sequence (A0A068Y017 31-362)
notes: E. coli BL21; 979 bp insert from metacestode vesicle cDNA
For B1, the values for the Km in series [4] and in series [5] were 0.8 ± 0.01 mM and 8.8 ± 0.05 mM, respectively.

The values above are taken from paper PMC11795093, “Investigation of the threonine metabolism of Echinococcus multilocularis: The threonine dehydrogenase as a potential drug target in alveolar echinococcosis” (International Journal for Parasitology: Drugs and Drug …, 2025).
